Data published in patent US20200024278A1, “COMPOSITION COMPRISING ANTIBIOTIC COMPOUND AND AN HETEROCYCLIC COMPOUND AND THEIR USE IN PREVENTING OR TREATING BACTERIAL INFECTIONS” (MUTABILIS, priority 2016, published 2020).

Key:
Test in all cases: MIC, broth microdilution (CLSI), substance alone or ATB combined with compound at 4 or 8 μg/mL
ECO 190317 = assay type: cell-based, E. coli; settings: ECO 190317; for MIC ATB combined with Example: Example @8 μg/ml
Method in brief: (§1)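 Each strain received 5·10^5 CFU/mL of log-phase cells in ca-MHB over DMSO-spotted compound or compound-antibiotic combinations. After 16-20 h at 35° C, growth was scored visually.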

ECO UFR39 = assay type: cell-based, E. coli; settings: ECO UFR39; for MIC ATB combined with Example: Example @8 μg/ml; for MIC ATB combined with Example compound: compound @8 μg/ml
Method in brief: as §1

KPN 6299 = assay type: cell-based, K. pneumoniae; settings: for MIC ATB combined with Example: Example @8 μg/ml
Method in brief: as §1

KPN BAA-1898 = assay type: cell-based, K. pneumoniae; settings: KPN BAA-1898; for MIC ATB combined with Example: Example @8 μg/ml
Method in brief: as §1

KPN UFR42 = assay type: cell-based, K. pneumoniae; settings: KPN UFR42; for MIC ATB combined with Example: Example @8 μg/ml; for MIC ATB combined with Example compound: compound @8 μg/ml
Method in brief: as §1

ECL P99 = assay type: cell-based, E. cloacae; settings: ECL P99; for MIC ATB combined with Example: Example @8 μg/ml
Method in brief: as §1

PAE 105250 = assay type: cell-based, P. aeruginosa; settings: PAE 105250; for MIC ATB combined with Example: Example @8 μg/ml; for MIC ATB combined with Example compound: compound @8 μg/ml
Method in brief: as §1

PAE UFR48 = assay type: cell-based, P. aeruginosa; settings: PAE UFR48; for MIC ATB combined with Example: Example @8 μg/ml; for MIC ATB combined with Example compound: compound @8 μg/ml
Method in brief: as §1

PAE UFR90 = assay type: cell-based, P. aeruginosa; settings: PAE UFR90; for MIC ATB combined with Example: Example @8 μg/ml; for MIC ATB combined with Example compound: compound @8 μg/ml
Method in brief: as §1

SAU 29213 = assay type: cell-based, S. aureus; settings: for MIC ATB combined with Example / MIC ATB combined with Example compound: SAU 29213; for MIC ATB combined with Example: Example @8 μg/ml; for MIC ATB combined with Example compound: compound @8 μg/ml
Method in brief: as §1

SPN 49619 = assay type: cell-based, S. pneumoniae; settings: SPN 49619; for MIC ATB combined with Example: Example @8 μg/ml; for MIC ATB combined with Example compound: compound @8 μg/ml
Method in brief: as §1

[1] = Escherichia coli, substance alone, read-out: MIC

SMILES: O=C1N2CC(n3cncn3)=CC(C2)N1OS(=O)(=O)[O-].[Na+] (stereo not shown) [Example 14, sodium [7-oxo-3-(1,2,4-triazol-1-yl)-1,6-diazabicyclo[3.2.1]oct-3-en-6-yl] sulfate]
- MIC ATB combined with Example (ECO 190317; ATB ATM): <0.031 µg/mL
- MIC ATB combined with Example (ECO 190317; ATB FEP): <0.031 µg/mL
- MIC ATB combined with Example (ECO 190317; ATB FOS): <0.125 µg/mL
- MIC ATB combined with Example (ECO 190317; ATB MEM): <0.031 µg/mL
- MIC ATB combined with Example (ECO 190317; ATB PIP): <0.031 µg/mL
- MIC (ECO 190317; [1]): 1 µg/mL
- MIC ATB combined with Example compound (ECO 190317; MIC of CIP, compound @8 μg/ml): <0.031 µg/mL
- MIC ATB combined with Example (ECO UFR39; ATB ATM): <0.031 µg/mL
- MIC ATB combined with Example (ECO UFR39; ATB FEP): <0.031 µg/mL
- MIC ATB combined with Example (ECO UFR39; ATB FOS): <0.125 µg/mL
- MIC ATB combined with Example (ECO UFR39; ATB MEM): <0.031 µg/mL
- MIC ATB combined with Example (ECO UFR39; ATB PIP): <0.031 µg/mL
- MIC (ECO UFR39; [1]): 2 µg/mL
- MIC ATB combined with Example compound (ECO UFR39; MIC of CIP): <0.031 µg/mL
- MIC ATB combined with Example compound (ECO UFR39; MIC of CPO): <0.031 µg/mL
- MIC ATB combined with Example (KPN 6299; ATB ATM): <0.031 µg/mL
- MIC ATB combined with Example (KPN 6299; ATB FEP): <0.031 µg/mL
- MIC ATB combined with Example (KPN 6299; ATB FOS): <0.125 µg/mL
- MIC ATB combined with Example (KPN 6299; ATB MEM): <0.031 µg/mL
- MIC ATB combined with Example (KPN 6299; ATB PIP): <0.031 µg/mL
- MIC ATB combined with Example compound (KPN 6299; MIC of CIP, compound @8 μg/ml): <0.031 µg/mL
- MIC ATB combined with Example (KPN BAA-1898; ATB ATM): <0.031 µg/mL
- MIC ATB combined with Example (KPN BAA-1898; ATB FEP): <0.031 µg/mL
- MIC ATB combined with Example (KPN BAA-1898; ATB FOS): <0.125 µg/mL
- MIC ATB combined with Example (KPN BAA-1898; ATB MEM): <0.031 µg/mL
- MIC ATB combined with Example (KPN BAA-1898; ATB PIP): <0.031 µg/mL
- MIC (KPN BAA-1898; Klebsiella pneumoniae, BAA1898, substance alone, read-out: MIC): 4 µg/mL
- MIC ATB combined with Example compound (KPN BAA-1898; MIC of CIP, compound @8 μg/ml): <0.031 µg/mL
- MIC ATB combined with Example (KPN UFR42; ATB ATM): <0.031 µg/mL
- MIC ATB combined with Example (KPN UFR42; ATB FEP): <0.031 µg/mL
- MIC ATB combined with Example (KPN UFR42; ATB FOS): <0.125 µg/mL
- MIC ATB combined with Example (KPN UFR42; ATB MEM): <0.031 µg/mL
- MIC ATB combined with Example (KPN UFR42; ATB PIP): <0.031 µg/mL
- MIC (KPN UFR42; Klebsiella pneumoniae, substance alone, read-out: MIC): 8 µg/mL
- MIC ATB combined with Example compound (KPN UFR42; MIC of CIP): <0.031 µg/mL
- MIC ATB combined with Example compound (KPN UFR42; MIC of CPO): <0.031 µg/mL
- MIC ATB combined with Example (ECL P99; ATB ATM): <0.031 µg/mL
- MIC ATB combined with Example (ECL P99; ATB FEP): <0.031 µg/mL
- MIC ATB combined with Example (ECL P99; ATB FOS): <0.125 µg/mL
- MIC ATB combined with Example (ECL P99; ATB MEM): <0.031 µg/mL
- MIC ATB combined with Example (ECL P99; ATB PIP): <0.031 µg/mL
- MIC (ECL P99; Enterobacter cloacae, substance alone, read-out: MIC): 4 µg/mL
- MIC ATB combined with Example compound (ECL P99; MIC of CIP, compound @8 μg/ml): <0.031 µg/mL
- MIC ATB combined with Example (PAE 105250; ATB ATM): 8 µg/mL
- MIC ATB combined with Example (PAE 105250; ATB FEP): 4 µg/mL
- MIC ATB combined with Example (PAE 105250; ATB FOS): >128 µg/mL
- MIC ATB combined with Example (PAE 105250; ATB MEM): 2 µg/mL
- MIC ATB combined with Example (PAE 105250; ATB PIP): 32 µg/mL
- MIC ATB combined with Example compound (PAE 105250; MIC of CIP): 0.125 µg/mL
- MIC ATB combined with Example compound (PAE 105250; MIC of CPO): 8 µg/mL
- MIC ATB combined with Example (PAE UFR48; ATB ATM): 8 µg/mL
- MIC ATB combined with Example (PAE UFR48; ATB FEP): 16 µg/mL
- MIC ATB combined with Example (PAE UFR48; ATB FOS): 32 µg/mL
- MIC ATB combined with Example (PAE UFR48; ATB MEM): 0.25 µg/mL
- MIC ATB combined with Example (PAE UFR48; ATB PIP): 16 µg/mL
- MIC ATB combined with Example compound (PAE UFR48; MIC of CIP): 4 µg/mL
- MIC ATB combined with Example compound (PAE UFR48; MIC of CPO): >32 µg/mL
- MIC ATB combined with Example (PAE UFR90; ATB ATM): 16 µg/mL
- MIC ATB combined with Example (PAE UFR90; ATB FEP): 4 µg/mL
- MIC ATB combined with Example (PAE UFR90; ATB FOS): 8 µg/mL
- MIC ATB combined with Example (PAE UFR90; ATB MEM): 2 µg/mL
- MIC ATB combined with Example (PAE UFR90; ATB PIP): >32 µg/mL
- MIC ATB combined with Example compound (PAE UFR90; MIC of CIP): 1 µg/mL
- MIC ATB combined with Example compound (PAE UFR90; MIC of CPO): 8 µg/mL
- MIC ATB combined with Example (SAU 29213; ATB ATM): <0.031 µg/mL
- MIC ATB combined with Example (SAU 29213; ATB FEP): <0.031 µg/mL
- MIC ATB combined with Example (SAU 29213; ATB FOS): <0.125 µg/mL
- MIC ATB combined with Example (SAU 29213; ATB MEM): <0.031 µg/mL
- MIC ATB combined with Example (SAU 29213; ATB PIP): <0.031 µg/mL
- MIC ATB combined with Example compound (SAU 29213; MIC of CIP): <0.031 µg/mL
- MIC ATB combined with Example compound (SAU 29213; MIC of CLI): <0.0010 µg/mL
- MIC ATB combined with Example compound (SAU 29213; MIC of CPO): <0.031 µg/mL
- MIC ATB combined with Example compound (SAU 29213; MIC of DAP): <0.0020 µg/mL
- MIC ATB combined with Example compound (SAU 29213; MIC of ERY): <0.0020 µg/mL
- MIC ATB combined with Example compound (SAU 29213; MIC of LZD): <0.0078 µg/mL
- MIC ATB combined with Example compound (SAU 29213; MIC of RIF): <0.00012 µg/mL
- MIC ATB combined with Example compound (SAU 29213; MIC of SYN): <0.0020 µg/mL
- MIC ATB combined with Example compound (SAU 29213; MIC of VAN): <0.0039 µg/mL
- MIC (SAU 29213; Staphylococcus aureus, substance alone, SAU 29213 (MSSA 29213), read-out: MIC): 4 µg/mL
- MIC ATB combined with Example (SPN 49619; ATB ATM): <0.031 µg/mL
- MIC ATB combined with Example (SPN 49619; ATB FEP): <=0.031 μg/mL
- MIC ATB combined with Example (SPN 49619; ATB FOS): 0.5 µg/mL
- MIC ATB combined with Example (SPN 49619; ATB MEM): <0.031 µg/mL
- MIC ATB combined with Example (SPN 49619; ATB PIP): 0.063 µg/mL
- MIC ATB combined with Example compound (SPN 49619; MIC of CIP): 0.031 µg/mL
- MIC ATB combined with Example compound (SPN 49619; MIC of CLI): <0.0010 µg/mL
- MIC ATB combined with Example compound (SPN 49619; MIC of CPO): <0.031 µg/mL
- MIC ATB combined with Example compound (SPN 49619; MIC of DAP): <=0.0020 μg/mL
- MIC ATB combined with Example compound (SPN 49619; MIC of ERY): <0.0020 µg/mL
- MIC ATB combined with Example compound (SPN 49619; MIC of LZD): <0.0078 µg/mL
- MIC ATB combined with Example compound (SPN 49619; MIC of RIF): <=0.00012 μg/mL
- MIC ATB combined with Example compound (SPN 49619; MIC of SYN): <=0.0020 μg/mL
- MIC ATB combined with Example compound (SPN 49619; MIC of VAN): <0.0039 µg/mL
- MIC (SPN 49619; Streptococcus pneumoniae, substance alone, read-out: MIC): 8 µg/mL
